In US11945801B2, “Bicyclic aza compounds as muscarinic M1 and/or M4 receptor agonists” (Heptares Therapeutics Limited, priority 2018, dated 2024):
Read-outs that look alike come from different tables or passages of the source.

Experiments:
Assay type in all cases: cell-based
[1] = molecular target: T1, human muscarinic M1 receptor (Homo sapiens, UniProt P11229); experiment: Alphascreen Surefire phospho-ERK1/2 functional assay, M1; settings: for EC50: agonist 5 min, 37° C.; for Emax: CHO
T1 sequence (P11229 1-460): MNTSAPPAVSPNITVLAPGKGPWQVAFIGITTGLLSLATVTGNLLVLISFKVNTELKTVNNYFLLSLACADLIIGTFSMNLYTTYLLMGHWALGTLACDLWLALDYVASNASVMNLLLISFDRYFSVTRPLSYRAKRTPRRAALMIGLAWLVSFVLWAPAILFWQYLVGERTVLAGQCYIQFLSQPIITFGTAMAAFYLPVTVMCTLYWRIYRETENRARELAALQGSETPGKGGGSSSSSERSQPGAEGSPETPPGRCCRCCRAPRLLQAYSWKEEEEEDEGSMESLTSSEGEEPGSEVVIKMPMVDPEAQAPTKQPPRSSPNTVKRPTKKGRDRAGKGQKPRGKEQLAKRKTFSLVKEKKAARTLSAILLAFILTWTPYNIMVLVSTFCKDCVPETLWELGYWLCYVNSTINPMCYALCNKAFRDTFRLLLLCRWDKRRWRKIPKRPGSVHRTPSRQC
Method: (§1) ERK1/2 phosphorylation is a downstream consequence of both Gq/11 and Gi/o protein coupled receptor activation, making it highly suitable for the assessment of M1, M3 (Gq/11 coupled) and M2, M4 receptors (Gi/o coupled), rather than using different assay formats for different receptor subtypes. CHO cells stably expressing the human muscarinic M1, M2, M3 or M4 receptor were plated (25K/well) onto 96-well tissue culture plates in MEM-alpha+10% dialysed FBS. Once adhered, cells were serum-starved overnight. Agonist stimulation was performed by the addition of 5 μL agonist to the cells for 5 min (37° C.). Media was removed and 50 μL of lysis buffer added. After […], a 4 μL sample was transferred to 384-well plate and 7 μL of detection mixture added.
(§2) Isomer assignment (Isomer 1, Isomer 2, etc.) is based on the retention time of the compound using the separation technique that was performed in the final purification step. By implication, this could be reversed phase HPLC, chiral HPLC or chiral SFC retention time, and this will vary from compound to compound.

[2] = molecular target: T2, human muscarinic M4 receptor (Homo sapiens, UniProt P08173); experiment: Alphascreen Surefire phospho-ERK1/2 functional assay, M4; settings: for % Emax cf. ACh, M4 / EC50: CHO cells stably expressing human M4; for EC50: agonist 5 min, 37° C., read-out: pEC50 M4 (converted); for Emax: CHO
T2 construct: expressed in transfected cells
T2 sequence (P08173 1-479): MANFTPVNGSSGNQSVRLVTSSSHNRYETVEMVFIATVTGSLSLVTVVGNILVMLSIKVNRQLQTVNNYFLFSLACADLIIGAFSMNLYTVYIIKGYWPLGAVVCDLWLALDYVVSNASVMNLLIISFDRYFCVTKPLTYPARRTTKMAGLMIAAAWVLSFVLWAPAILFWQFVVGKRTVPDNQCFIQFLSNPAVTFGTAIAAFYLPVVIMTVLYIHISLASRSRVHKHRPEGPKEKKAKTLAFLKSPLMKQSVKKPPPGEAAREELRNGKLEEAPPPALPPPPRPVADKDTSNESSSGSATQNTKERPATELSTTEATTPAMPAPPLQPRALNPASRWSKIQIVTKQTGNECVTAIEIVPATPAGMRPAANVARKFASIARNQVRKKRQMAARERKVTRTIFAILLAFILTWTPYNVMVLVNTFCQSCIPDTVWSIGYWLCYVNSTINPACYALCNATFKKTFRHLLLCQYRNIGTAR
Method: as §1, §2

[3] = molecular target: T3, human muscarinic M3 receptor (Homo sapiens, UniProt P20309); experiment: Alphascreen Surefire phospho-ERK1/2 functional assay, M3; settings: for Emax: CHO
T3 construct: expressed in transfected cells
Method: as §1, §2

[4] = molecular target: T4, human muscarinic M2 receptor (Homo sapiens, UniProt P08172); experiment: Alphascreen Surefire phospho-ERK1/2 functional assay, M2; settings: for Emax: CHO
T4 sequence (P08172 1-466): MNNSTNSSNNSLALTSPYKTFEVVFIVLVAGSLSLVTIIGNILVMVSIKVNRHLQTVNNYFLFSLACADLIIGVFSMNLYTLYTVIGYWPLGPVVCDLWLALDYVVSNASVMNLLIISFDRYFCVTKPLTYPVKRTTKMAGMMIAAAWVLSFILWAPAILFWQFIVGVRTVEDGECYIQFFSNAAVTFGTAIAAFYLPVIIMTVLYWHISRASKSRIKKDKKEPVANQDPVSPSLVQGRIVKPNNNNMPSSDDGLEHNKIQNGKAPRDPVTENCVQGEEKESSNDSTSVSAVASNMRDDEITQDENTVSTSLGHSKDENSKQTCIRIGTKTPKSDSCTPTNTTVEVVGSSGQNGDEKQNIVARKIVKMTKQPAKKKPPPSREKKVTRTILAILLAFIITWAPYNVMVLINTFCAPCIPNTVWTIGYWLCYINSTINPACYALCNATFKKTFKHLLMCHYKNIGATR
Method: as §1, §2

[5] = CHO cells stably expressing human M1, read-out: pEC50 M1 (converted)
[6] = CHO cells stably expressing human M3, agonist 5 min, 37° C., read-out: pEC50 M3 (converted)
[7] = read-out: % Emax cf. ACh, M3, CHO cells stably expressing human M3, Emax relative to ACh
[8] = CHO cells stably expressing human M2, agonist 5 min, 37° C., read-out: pEC50 M2 (converted)
[9] = read-out: % Emax cf. ACh, M2, CHO cells stably expressing human M2, Emax relative to ACh
[10] = read-out: % Emax cf. ACh, M1, CHO cells stably expressing human M1, Emax relative to ACh
[11] = read-out: % Emax cf. ACh, M4, CHO cells stably expressing human M4, Emax relative to ACh

T3 sequence (P20309 whole entry): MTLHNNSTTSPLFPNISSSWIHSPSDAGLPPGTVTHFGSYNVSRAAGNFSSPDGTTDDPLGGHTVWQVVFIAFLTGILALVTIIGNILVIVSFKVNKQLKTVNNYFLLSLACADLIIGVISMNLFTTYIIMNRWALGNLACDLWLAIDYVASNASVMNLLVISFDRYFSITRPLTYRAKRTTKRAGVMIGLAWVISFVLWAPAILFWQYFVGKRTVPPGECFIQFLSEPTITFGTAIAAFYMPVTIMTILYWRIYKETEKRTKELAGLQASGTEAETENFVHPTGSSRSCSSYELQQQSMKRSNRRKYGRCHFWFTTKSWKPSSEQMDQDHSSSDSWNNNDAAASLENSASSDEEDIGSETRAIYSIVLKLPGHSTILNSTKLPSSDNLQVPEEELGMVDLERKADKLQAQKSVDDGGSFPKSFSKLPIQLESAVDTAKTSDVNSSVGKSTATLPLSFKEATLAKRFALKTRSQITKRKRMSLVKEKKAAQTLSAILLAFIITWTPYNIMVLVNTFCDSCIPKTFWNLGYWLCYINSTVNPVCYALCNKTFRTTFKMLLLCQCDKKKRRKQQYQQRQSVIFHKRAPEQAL

Structure (SMILES)	EC50 [1, 5] [µM]	EC50 [2] [µM]	EC50 [3, 6] [µM]	Emax [3, 7] [%]	EC50 [4, 8] [µM]	Emax [4, 9] [%]	Emax [1, 10] [%]	Emax [2, 11] [%]	further results
CCOC(=O)N1CC2CCC1CC2N1CC(CC(=O)N(CC)C(C)C)C1 (single isomer, unassigned) [Example 2-2 Isomer 2, Ethyl-5-(3-(2-(ethyl(isopropyl)amino)-2-oxoethyl)azetidin-1-yl)-2-azabicyclo[2.2.2]octane-2-carboxylate]	0.229	> 20	–	–	–	–	–	–	% Emax cf. ACh, M1 ([1]; CHO cells stably expressing human M1, Emax relative to ACh, listed as 2-2 Isomer 2): 65%; % Emax cf. ACh, M4 ([2]; Emax relative to ACh): 31%; % Emax cf. ACh, M3 ([3]; CHO cells stably expressing human M3, Emax relative to ACh): 7%; % Emax cf. ACh, M2 ([4]; CHO cells stably expressing human M2, Emax relative to ACh): 6%
CCOC(=O)N1CC2(CCC(N3CC(OC(=O)N4CCCOCC4)C3)C2)C1 (single isomer, unassigned) [Example 4-9 Isomer 1, 1-(2-(Ethoxycarbonyl)-2-azaspiro[3.4]octan-6-yl)azetidin-3-yl 1,4-oxazepane-4-carboxylate]	0.0575	> 20	> 20	2	> 20	3	–	–	% Emax cf. ACh, M1 ([1]; CHO cells stably expressing human M1, Emax relative to ACh, listed as 4-9 Isomer 1): 37%; % Emax cf. ACh, M4 ([2]; Emax relative to ACh, listed as 4-9 Isomer 1): 7%
CCOC(=O)N1C2CCC1CC(N1CC(CC(=O)N3CCCCC3)C1)C2 (mixture of isomers) [Example 1-4 Isomer mixture, Ethyl-3-(3-(2-oxo-2-(piperidin-1-yl)ethyl)azetidin-1-yl)-8-azabicyclo[3.2.1]octane-8-carboxylate]	0.309	> 20	> 20	–	> 20	–	–	–	Emax ([1]; read-out: % Emax cf. ACh, M1): 84%; Emax ([2]; read-out: % Emax cf. ACh, M4): 17%; Emax ([3]; read-out: % Emax cf. ACh, M3): 6%; Emax ([4]; read-out: % Emax cf. ACh, M2): 21%
CCOC(=O)N1C2CCC1CC(N1CC(OC(=O)N3CCCCCC3)C1)C2 (mixture of isomers) [Example 5-1 Isomer mixture, Ethyl 3-(3-((azepane-1-carbonyl)oxy)azetidin-1-yl)-8-azabicyclo[3.2.1]octane-8-carboxylate]	–	0.427	–	–	–	–	–	–	Emax ([1]; read-out: % Emax cf. ACh, M1): 83%; EC50 ([1]; pEC50 M1, CHO cells stably expressing human M1): 0.0891 µM; Emax ([2]; read-out: % Emax cf. ACh, M4): 39%; EC50 [3]: > 20 µM; Emax ([3]; read-out: % Emax cf. ACh, M3): 45%; EC50 [4]: > 20 µM; Emax ([4]; read-out: % Emax cf. ACh, M2): 18%
CCN(CC)C(=O)OC1CN(C2CCC3(C2)CN(C(=O)OC)C3)C1 (single isomer, unassigned) [Example 4-6 Isomer 2, Methyl 6-(3-((diethylcarbamoyl)oxy)azetidin-1-yl)-2-azaspiro[3.4]octane-2-carboxylate]	0.214	0.339	> 20	11	> 20	9	–	–	% Emax cf. ACh, M1 ([1]; CHO cells stably expressing human M1, Emax relative to ACh): 93%; % Emax cf. ACh, M4 ([2]; Emax relative to ACh): 32%
CCOC(=O)N1CC2CCC1CC2N1CC(OC(=O)N2CCCCCC2)C1 (single isomer, unassigned) [Example 6-4 Isomer 1, Ethyl 5-(3-((azepane-1-carbonyl)oxy)azetidin-1-yl)-2-azabicyclo[2.2.2]octane-2-carboxylate]	0.117	0.49	> 20	5	> 20	9	86	50	–
CCOC(=O)N1CC2(CCC(N3CC(OC(=O)N(CC)CC)C3)C2)C1 (single isomer, unassigned) [Example 4-5 Isomer 1, Ethyl 6-(3-((diethylcarbamoyl)oxy)azetidin-1-yl)-2-azaspiro[3.4]octane-2-carboxylate]	0.0158	0.0331	> 20	54	> 20	6	–	–	% Emax cf. ACh, M1 ([1]; CHO cells stably expressing human M1, Emax relative to ACh, listed as 4-5 Isomer 1): 66%; % Emax cf. ACh, M4 ([2]; Emax relative to ACh, listed as 4-5 Isomer 1): 31%
CCOC(=O)N1CC2CCC1CC2N1CC(CC(=O)N2CCCCC2)C1 (single isomer, unassigned) [Example 2-3 Isomer 1, Ethyl-5-(3-(2-oxo-2-(piperidin-1-yl)ethyl)azetidin-1-yl)-2-azabicyclo[2.2.2]octane-2-carboxylate]	0.204	6.46	> 20	9	> 20	10	88	46	–
CCOC(=O)N1CCC2(CC(N3CC(OC(=O)N(CC)CC)C3)C2)C1 (single isomer, unassigned) [Example 4-2 Isomer 2, Ethyl 2-(3-((diethylcarbamoyl)oxy)azetidin-1-yl)-6-azaspiro[3.4]octane-6-carboxylate]	0.158	0.282	> 20	17	> 20	14	105	89	–
CCOC(=O)N1C2CCC1CC(N1CC(CC(=O)N(CC)CC)C1)C2 (single isomer, unassigned) [Example 1-1 Isomer 2, Ethyl-3-(3-(2-(diethylamino)-2-oxoethyl)azetidin-1-yl)-8-azabicyclo[3.2.1]octane-8-carboxylate]	0.316	0.2	> 20	–	1.26	–	–	–	Emax ([1]; read-out: % Emax cf. ACh, M1): 100%; Emax ([2]; read-out: % Emax cf. ACh, M4): 85%; Emax ([3]; read-out: % Emax cf. ACh, M3): 28%; Emax ([4]; read-out: % Emax cf. ACh, M2): 58%
CCOC(=O)N1CC2(CCC(N3CC(OC(=O)N4CCCC4)C3)C2)C1 (single isomer, unassigned) [Example 4-7 Isomer 1, Ethyl 6-(3-((pyrrolidine-1-carbonyl)oxy)azetidin-1-yl)-2-azaspiro[3.4]octane-2-carboxylate]	0.0759	0.049	> 20	8	> 20	7	51	29	–
CCOC(=O)N1CC2(CCC(N3CC(OC(=O)N4CCOCC4)C3)C2)C1 (single isomer, unassigned) [Example 4-8 Isomer 1, 1-(2-(Ethoxycarbonyl)-2-azaspiro[3.4]octan-6-yl)azetidin-3-yl morpholine-4-carboxylate]	0.0575	> 20	> 20	4	> 20	2	72	14	–
